# Results as given in patent publication US9751840B2, “R-7-(3-aminomethyl-4-methoxyimino-3-methyl-pyrrolidin-1-yl)-1-cyclopropyl-6-fluoro-4-oxo-acid and L-aspartic acid salt, process for the preparation thereof and pharmaceutical composition comprising the same for antimicrobial” (ARIBIO CO. LTD., priority 2009, dated 2017).
# Where two headings read alike, the source gives them in different places.
# Legend:
# [1] = In vivo tissue distribution test; parameters: species or system ICR mice; conditions: ICR, mouse, spleen, po, 100 mg/kg; read-out: P ratio Spleen
# [2] = In vivo tissue distribution test; parameters: species or system ICR mice; conditions: mouse, po; for Kp: ICR, 100 mg/kg
# Method: An in vivo tissue distribution test was performed in order to confirm the degree of drug distribution of the L-aspartate and hydrochloride according to the present invention in each organ. After 8-week-old ICR mice were purchased and adapted in the laboratory, each salt was orally administered to the mouse at a dose of 100 mg/kg. The mice were bled and sacrificed at a predetermined time and each organ was drawn to measure the concentration in each organ. After the administration of hydrochloride and L-aspartate, each organ concentration over time, the area under the corresponding time-concentration curve, and the ratio of permeation into tissue were shown in Tables 5 and 6.
# Then, P ratio is a ratio of permeation into muscle and calculated as intramuscular AUC/intraplasmic AUC.
# [3] = In vivo pharmacokinetic test; parameters: species or system SD rats; conditions: rats; for AUC(0-t) / Cmax / Tmax: SD, rat, plasma
# Description: The L-aspartate and hydrochloride according to the present invention were orally or intravenously administered to SD rats, respectively and blood samples were collected at a predetermined time to compare in vivo pharmacokinetics.
# Then, Cmax: maximum drug concentration, Tmax: maximum drug concentration time, T1/2: drug half-life, AUCO-t: area under the plasma concentration-time curve from time zero to t hours, and AUCO-inf: area under the plasma concentration-time curve from time zero to infinity.
# [4] = tested on: polychromatic erythrocyte with one or more nuclei (MNPCE); assay: In vivo genotoxicity, micronucleus test; conditions: male mice, intraperitoneal, 7.5 mg/kg
# Description: The following study performed to obtain in vivo genotoxicities, micronucleus test of L-aspartate and hydrochloric acid salt in male mice to the following procedure.
# Solubility test = format: physicochemical; conditions: room temperature, water
# Male ICR mice = assay: Single dose toxicity in mice (LD50); conditions: single intraperitoneal dose, observed 14 days
# Method: The following experiment was performed in order to observe the degree of toxicity of the L-aspartate according to the present invention.
# Male ICR mice were used as experimental animals. 5 male ICR mice were divided into 6 dose groups, respectively and fasted except for water for 24 hours.
# [5] = Stability test in distilled water; format: physicochemical; conditions: 30 mg in 100 ml distilled water
# [6] = male, testicle, ICR mice, p.o. 100 mg/kg, read-out: Testicle concentration
# [7] = brain, ICR mice, p.o. 100 mg/kg, read-out: Brain concentration
# [8] = heart, ICR mice, p.o. 100 mg/kg, read-out: Heart concentration
# [9] = kidney, ICR mice, p.o. 100 mg/kg, read-out: Kidney concentration
# [10] = liver, ICR mice, p.o. 100 mg/kg, read-out: Liver concentration
# [11] = lung, ICR mice, p.o. 100 mg/kg, read-out: Lung concentration
# [12] = muscle, ICR mice, p.o. 100 mg/kg, read-out: Muscle concentration
# [13] = plasma, ICR mice, p.o. 100 mg/kg, read-out: Plasma concentration
# [14] = spleen, ICR mice, p.o. 100 mg/kg, read-out: Spleen concentration
# [15] = testicle, ICR mice, p.o. 100 mg/kg, read-out: Testicle concentration
# [16] = thymus, ICR mice, p.o. 100 mg/kg, read-out: Thymus concentration
smiles,measurement,setting,value
CON=C1CN(c2nc3c(cc2F)c(=O)c(C(=O)O)cn3C2CC2)C[C@@]1(C)CN.Cl [Hydrochloride (Comparative Example 3)],Kp,[1],8.66
same,Kp,"[2]; brain, read-out: P ratio Brain",0.27
same,Kp,"[2]; heart, read-out: P ratio Heart",4.19
same,Kp,"[2]; kidney, read-out: P ratio Kidney",6.59
same,Kp,"[2]; liver, read-out: P ratio Liver",10.5
same,Kp,"[2]; lung, read-out: P ratio Lung",5.59
same,Kp,"[2]; muscle, read-out: P ratio Muscle",3.92
same,Kp,"[2]; thymus, read-out: P ratio Thymus",4.83
same,Kp,"[2]; male, testicle, read-out: P ratio Testicle",1.7
same,concentration at 0.5 h,[2]; [6],4790 ng/g
same,concentration at 1 h,[2]; [6],8360 ng/g
same,concentration at 8 h,[2]; [6],7770 ng/g
same,concentration at 0.5 h,[2]; [7],2510 ng/g
same,concentration at 1 h,[2]; [7],3090 ng/g
same,concentration at 1.5 h,[2]; [7],2720 ng/g
same,concentration at 2 hr,[2]; [7],3180 ng/g
same,concentration at 3 h,[2]; [7],1990 ng/g
same,concentration at 5 h,[2]; [7],1600 ng/g
same,concentration at 8 h,[2]; [7],730 ng/g
same,concentration at 0.5 h,[2]; [8],59300 ng/g
same,concentration at 1 h,[2]; [8],61200 ng/g
same,concentration at 1.5 hr,[2]; [8],52700 ng/g
same,concentration at 2 hr,[2]; [8],57600 ng/g
same,concentration at 3 h,[2]; [8],25500 ng/g
same,concentration at 5 h,[2]; [8],17300 ng/g
same,concentration at 8 h,[2]; [8],8860 ng/g
same,concentration at 0.5 h,[2]; [9],90800 ng/g
same,concentration at 1 h,[2]; [9],87800 ng/g
same,concentration at 1.5 h,[2]; [9],75500 ng/g
same,concentration at 2 hr,[2]; [9],69900 ng/g
same,concentration at 3 h,[2]; [9],43000 ng/g
same,concentration at 5 h,[2]; [9],32800 ng/g
same,concentration at 8 h,[2]; [9],18000 ng/g
same,concentration at 0.5 h,[2]; [10],161000 ng/g
same,concentration at 1 h,[2]; [10],125000 ng/g
same,concentration at 1.5 h,[2]; [10],113000 ng/g
same,concentration at 2 hr,[2]; [10],109000 ng/g
same,concentration at 3 h,[2]; [10],69000 ng/g
same,concentration at 5 h,[2]; [10],55700 ng/g
same,concentration at 8 h,[2]; [10],27000 ng/g
same,concentration at 0.5 h,[2]; [11],82800 ng/g
same,concentration at 1 h,[2]; [11],79500 ng/g
same,concentration at 1.5 h,[2]; [11],73600 ng/g
same,concentration at 2 hr,[2]; [11],63700 ng/g
same,concentration at 3 h,[2]; [11],38800 ng/g
same,concentration at 5 h,[2]; [11],23400 ng/g
same,concentration at 8 h,[2]; [11],11400 ng/g
same,concentration at 0.5 h,[2]; [12],39800 ng/g
same,concentration at 1 h,[2]; [12],52000 ng/g
same,concentration at 1.5 h,[2]; [12],50400 ng/g
same,concentration at 2 hr,[2]; [12],50800 ng/g
same,concentration at 3 h,[2]; [12],28300 ng/g
same,concentration at 5 h,[2]; [12],18400 ng/g
same,concentration at 8 h,[2]; [12],8260 ng/g
same,concentration at 0.5 h,[2]; [13],15500 ng/mL
same,concentration at 1 h,[2]; [13],14200 ng/mL
same,concentration at 1.5 h,[2]; [13],12100 ng/mL
same,concentration at 2 hr,[2]; [13],12000 ng/mL
same,concentration at 3 h,[2]; [13],6240 ng/mL
same,concentration at 5 h,[2]; [13],4320 ng/mL
same,concentration at 8 h,[2]; [13],2290 ng/mL
same,AUC(0-t),"[2]; plasma, ICR mice, p.o. 100 mg/kg, read-out: AUC0-t Plasma",53600 ng·h/mL
same,concentration at 0.5 h,[2]; [14],102000 ng/g
same,concentration at 1 h,[2]; [14],112000 ng/g
same,concentration at 1.5 hr,[2]; [14],107000 ng/g
same,concentration at 2 hr,[2]; [14],102000 ng/g
same,concentration at 3 h,[2]; [14],59800 ng/g
same,concentration at 5 h,[2]; [14],42100 ng/g
same,concentration at 8 h,[2]; [14],21500 ng/g
same,concentration at 1.5 hr,[2]; [15],12700 ng/g
same,concentration at 2 hr,[2]; [15],17000 ng/g
same,concentration at 3 h,[2]; [15],14200 ng/g
same,concentration at 5 h,[2]; [15],12900 ng/g
same,concentration at 0.5 h,[2]; [16],24600 ng/g
same,concentration at 1 h,[2]; [16],58000 ng/g
same,concentration at 1.5 hr,[2]; [16],60800 ng/g
same,concentration at 2 hr,[2]; [16],61300 ng/g
same,concentration at 3 h,[2]; [16],38400 ng/g
same,concentration at 5 h,[2]; [16],25700 ng/g
same,concentration at 8 h,[2]; [16],12800 ng/g
same,AUC(0-t),"[3]; iv, i.v. 10 mg/kg",8720 ± 330 ng·h/mL
same,Cmax,"[3]; iv, i.v. 10 mg/kg",4460 ± 960 ng/mL
same,Tmax,"[3]; iv, i.v. 10 mg/kg",0 h
same,AUC(0-t),"[3]; po, p.o. 100 mg/kg",44400 ± 21400 ng·h/mL
same,Cmax,"[3]; po, p.o. 100 mg/kg",7620 ± 3930 ng/mL
same,Tmax,"[3]; po, p.o. 100 mg/kg",2.13 ± 1.97 h
same,BA (%),"[3]; p.o. 100 mg/kg, calculated by ratio of AUC0-t",50.96%
same,MNPCE number,[4],singificantly increase
same,solubility,Solubility test,93.3 mg/mL
same,Lethal dose 50,Male ICR mice,176 mg/kg
same,Content (%) 60? (after 3 weeks),"[5]; 60?, 3 weeks",90.0%
same,Content (%) Initial,[5]; initial,97.9%
same,Content (%) Room temperature (after 3 weeks),"[5]; room temperature, 3 weeks",98.0%
